Measured values from ChEMBL document CHEMBL4507270 (2021).
The source made the active and inactive calls. No cut-off for these calls is given here.

Key:
[1] = system: Phosphatidylinositol 4,5-bisphosphate 3-kinase catalytic subunit alpha isoform (Homo sapiens), P42336 [C420R]
[2] = molecular target: Delta-type opioid receptor (Homo sapiens, UniProt P41143); settings: Compound concentration 10.0 uM
[3] = molecular target: Serine/threonine-protein kinase SIK2 (Homo sapiens) (UniProt Q9H0K1)
[4] = molecular target: MAP kinase-activated protein kinase 5 (Homo sapiens) (UniProt Q8IW41)
[5] = molecular target: Tyrosine-protein kinase Tec (Homo sapiens) (UniProt P42680)
[6] = molecular target: Serine/threonine-protein kinase 36 (Homo sapiens) (UniProt Q9NRP7)
[7] = molecular target: Ribosomal protein S6 kinase alpha-4 (Homo sapiens) (UniProt O75676)
[8] = molecular target: Epithelial discoidin domain-containing receptor 1 (Homo sapiens, UniProt Q08345); assay: NanoBRET assay (SGC Frankfurt) with DDR1
Chain of Epithelial discoidin domain-containing receptor 1 (Q08345 whole entry, the tested form may be a part): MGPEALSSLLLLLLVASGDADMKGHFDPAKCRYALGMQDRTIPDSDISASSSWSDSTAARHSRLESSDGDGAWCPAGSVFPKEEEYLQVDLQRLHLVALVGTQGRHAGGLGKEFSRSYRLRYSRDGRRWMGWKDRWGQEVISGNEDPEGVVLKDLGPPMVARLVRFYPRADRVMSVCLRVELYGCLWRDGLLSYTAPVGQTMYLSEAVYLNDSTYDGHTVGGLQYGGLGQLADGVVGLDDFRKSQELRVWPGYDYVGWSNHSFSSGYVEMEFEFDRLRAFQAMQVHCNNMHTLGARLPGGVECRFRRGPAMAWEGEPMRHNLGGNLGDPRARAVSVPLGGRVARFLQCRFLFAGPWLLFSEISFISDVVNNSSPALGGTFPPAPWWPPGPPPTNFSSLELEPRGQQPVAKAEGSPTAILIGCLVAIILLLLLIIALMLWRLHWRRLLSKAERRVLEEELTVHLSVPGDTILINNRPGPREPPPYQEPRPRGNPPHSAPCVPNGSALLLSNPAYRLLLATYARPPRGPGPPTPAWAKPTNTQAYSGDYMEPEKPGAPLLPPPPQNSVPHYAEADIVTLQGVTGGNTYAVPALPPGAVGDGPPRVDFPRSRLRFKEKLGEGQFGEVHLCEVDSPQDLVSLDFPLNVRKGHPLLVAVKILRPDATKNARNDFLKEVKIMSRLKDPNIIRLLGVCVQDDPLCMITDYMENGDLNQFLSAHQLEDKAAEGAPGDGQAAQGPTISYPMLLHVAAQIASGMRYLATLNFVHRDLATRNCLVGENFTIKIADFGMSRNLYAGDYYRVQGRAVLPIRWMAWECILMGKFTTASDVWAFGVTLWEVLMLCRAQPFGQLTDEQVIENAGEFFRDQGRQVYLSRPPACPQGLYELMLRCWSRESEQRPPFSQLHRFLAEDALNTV

[9] = system: Mast/stem cell growth factor receptor Kit (Homo sapiens), P10721 [D816V]
Angiopoietin-1 receptor = Angiopoietin-1 receptor (Homo sapiens, UniProt Q02763)
[10] = molecular target: Serine/threonine-protein kinase pim-2 (Homo sapiens) (UniProt Q9P1W9)
Chain of Serine/threonine-protein kinase pim-2 (Homo sapiens) (Q9P1W9 whole entry, looked up): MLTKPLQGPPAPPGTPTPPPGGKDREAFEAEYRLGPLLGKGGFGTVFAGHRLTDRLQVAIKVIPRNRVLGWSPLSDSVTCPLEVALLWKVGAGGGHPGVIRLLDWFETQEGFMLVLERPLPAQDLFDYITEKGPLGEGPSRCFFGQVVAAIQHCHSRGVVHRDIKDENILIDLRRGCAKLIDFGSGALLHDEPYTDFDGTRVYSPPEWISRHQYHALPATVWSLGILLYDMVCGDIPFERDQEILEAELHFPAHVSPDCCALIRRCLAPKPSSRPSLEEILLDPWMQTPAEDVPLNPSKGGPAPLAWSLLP

[11] = molecular target: Sodium-dependent dopamine transporter (Homo sapiens) (UniProt Q01959); settings: Compound concentration 10.0 uM
[12] = molecular target: Cyclin-dependent kinase 18 (Homo sapiens) (UniProt Q07002)
[13] = molecular target: Homeodomain-interacting protein kinase 4 (Homo sapiens) (UniProt Q8NE63)
[14] = molecular target: Serine/threonine-protein kinase PLK2 (Homo sapiens) (UniProt Q9NYY3)
[15] = molecular target: Serine/threonine-protein kinase Sgk1 (Homo sapiens) (UniProt O00141)
Chain of Serine/threonine-protein kinase Sgk1 (Homo sapiens) (O00141 whole entry): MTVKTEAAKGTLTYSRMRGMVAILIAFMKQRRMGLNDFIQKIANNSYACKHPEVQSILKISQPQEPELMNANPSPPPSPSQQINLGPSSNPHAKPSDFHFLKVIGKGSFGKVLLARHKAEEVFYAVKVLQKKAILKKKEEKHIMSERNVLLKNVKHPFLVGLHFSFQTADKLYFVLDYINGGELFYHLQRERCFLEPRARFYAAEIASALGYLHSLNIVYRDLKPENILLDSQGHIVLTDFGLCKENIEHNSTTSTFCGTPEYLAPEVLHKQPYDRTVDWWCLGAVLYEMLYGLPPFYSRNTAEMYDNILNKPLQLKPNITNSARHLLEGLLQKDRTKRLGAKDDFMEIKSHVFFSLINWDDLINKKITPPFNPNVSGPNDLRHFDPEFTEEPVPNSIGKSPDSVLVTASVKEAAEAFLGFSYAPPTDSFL

[16] = molecular target: Epidermal growth factor receptor (Homo sapiens) (UniProt P00533)
[17] = system: Phosphatidylinositol 4,5-bisphosphate 3-kinase catalytic subunit alpha isoform (Homo sapiens), P42336 [E542K]
Chain of Phosphatidylinositol 4,5-bisphosphate 3-kinase catalytic subunit alpha isoform (Homo sapiens), P42336 [E542K] (P42336 whole entry E542K, canonical isoform): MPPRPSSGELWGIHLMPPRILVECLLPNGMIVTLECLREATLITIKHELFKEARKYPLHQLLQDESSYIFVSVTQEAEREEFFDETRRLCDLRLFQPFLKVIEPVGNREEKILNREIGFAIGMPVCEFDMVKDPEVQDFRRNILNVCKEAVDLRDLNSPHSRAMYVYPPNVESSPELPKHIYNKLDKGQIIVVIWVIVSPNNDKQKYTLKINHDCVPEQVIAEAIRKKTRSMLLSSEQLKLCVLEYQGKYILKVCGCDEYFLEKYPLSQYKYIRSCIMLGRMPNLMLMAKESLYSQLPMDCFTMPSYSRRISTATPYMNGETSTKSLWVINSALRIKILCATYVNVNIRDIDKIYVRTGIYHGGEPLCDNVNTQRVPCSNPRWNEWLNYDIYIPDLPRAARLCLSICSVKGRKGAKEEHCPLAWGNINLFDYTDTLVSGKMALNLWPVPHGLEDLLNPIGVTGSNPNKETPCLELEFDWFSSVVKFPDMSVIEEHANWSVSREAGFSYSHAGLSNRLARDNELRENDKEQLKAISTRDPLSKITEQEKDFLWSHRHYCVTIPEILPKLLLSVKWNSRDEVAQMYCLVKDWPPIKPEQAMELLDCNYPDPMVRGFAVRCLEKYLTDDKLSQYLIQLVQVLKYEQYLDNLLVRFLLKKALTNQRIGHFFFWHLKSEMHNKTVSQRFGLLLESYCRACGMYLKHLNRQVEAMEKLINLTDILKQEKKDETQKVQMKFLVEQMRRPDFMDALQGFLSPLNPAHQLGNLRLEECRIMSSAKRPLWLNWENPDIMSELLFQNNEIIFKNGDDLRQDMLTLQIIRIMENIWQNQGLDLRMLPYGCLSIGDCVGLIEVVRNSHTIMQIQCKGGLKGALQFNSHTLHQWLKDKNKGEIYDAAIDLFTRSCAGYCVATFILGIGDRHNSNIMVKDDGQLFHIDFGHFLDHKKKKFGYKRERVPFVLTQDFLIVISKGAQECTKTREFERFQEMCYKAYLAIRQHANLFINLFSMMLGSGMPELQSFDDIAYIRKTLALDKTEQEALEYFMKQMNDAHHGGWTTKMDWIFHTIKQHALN

[18] = system: Epidermal growth factor receptor (Homo sapiens), P00533 [T790M]
[19] = molecular target: Phosphatidylinositol 4-phosphate 3-kinase C2 domain-containing subunit beta (Homo sapiens) (UniProt O00750)
[20] = molecular target: Tyrosine-protein kinase Fes/Fps (Homo sapiens) (UniProt P07332)
[21] = NanoBRET assay (SGC Frankfurt) with LYN; settings: Homo sapiens
[22] = system: Receptor-type tyrosine-protein kinase FLT3 (Homo sapiens), P36888 [D835Y]
[23] = molecular target: Serine/threonine-protein kinase Nek1 (Homo sapiens) (UniProt Q96PY6)
[24] = molecular target: Mitogen-activated protein kinase 7 (Homo sapiens) (UniProt Q13164)
Chain of Mitogen-activated protein kinase 7 (Homo sapiens) (Q13164 2-816 limits assumed): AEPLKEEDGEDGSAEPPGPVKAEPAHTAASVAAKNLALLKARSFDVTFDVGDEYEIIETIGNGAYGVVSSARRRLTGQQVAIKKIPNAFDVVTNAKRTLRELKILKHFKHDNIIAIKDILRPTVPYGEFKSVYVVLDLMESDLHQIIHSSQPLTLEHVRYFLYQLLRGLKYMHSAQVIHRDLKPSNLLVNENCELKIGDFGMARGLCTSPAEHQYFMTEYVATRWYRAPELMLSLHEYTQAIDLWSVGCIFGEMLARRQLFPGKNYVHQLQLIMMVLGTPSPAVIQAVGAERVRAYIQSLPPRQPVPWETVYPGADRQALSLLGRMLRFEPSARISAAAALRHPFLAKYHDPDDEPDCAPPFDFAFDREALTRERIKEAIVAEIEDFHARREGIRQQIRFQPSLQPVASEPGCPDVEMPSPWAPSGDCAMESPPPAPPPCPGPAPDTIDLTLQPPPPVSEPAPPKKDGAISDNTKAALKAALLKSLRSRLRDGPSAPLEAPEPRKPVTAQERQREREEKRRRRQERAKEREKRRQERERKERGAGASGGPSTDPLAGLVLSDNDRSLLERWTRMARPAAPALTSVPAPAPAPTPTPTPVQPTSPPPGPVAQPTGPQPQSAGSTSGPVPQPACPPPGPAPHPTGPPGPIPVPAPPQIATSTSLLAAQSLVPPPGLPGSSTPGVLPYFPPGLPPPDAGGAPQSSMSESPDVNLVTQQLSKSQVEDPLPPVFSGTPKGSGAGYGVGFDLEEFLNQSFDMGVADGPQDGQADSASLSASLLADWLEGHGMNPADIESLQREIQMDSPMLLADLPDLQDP

[25] = molecular target: Serine/threonine-protein kinase NIM1 (Homo sapiens) (UniProt Q8IY84)
Chain of Serine/threonine-protein kinase NIM1 (Homo sapiens) (Q8IY84 whole entry): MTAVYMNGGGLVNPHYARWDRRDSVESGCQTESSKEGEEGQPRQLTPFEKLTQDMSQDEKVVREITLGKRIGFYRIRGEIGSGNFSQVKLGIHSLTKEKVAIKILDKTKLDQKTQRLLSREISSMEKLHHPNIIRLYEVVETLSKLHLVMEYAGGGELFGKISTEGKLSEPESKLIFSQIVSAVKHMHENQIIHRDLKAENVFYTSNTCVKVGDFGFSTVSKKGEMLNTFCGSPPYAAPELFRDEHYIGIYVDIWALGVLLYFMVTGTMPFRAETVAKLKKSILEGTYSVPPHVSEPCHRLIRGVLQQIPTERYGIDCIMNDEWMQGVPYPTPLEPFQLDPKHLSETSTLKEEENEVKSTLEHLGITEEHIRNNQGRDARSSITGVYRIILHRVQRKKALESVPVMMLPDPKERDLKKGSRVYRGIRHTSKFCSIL

[26] = molecular target: Ribosomal protein S6 kinase alpha-3 (Homo sapiens) (UniProt P51812)
[27] = molecular target: Aurora kinase B (Homo sapiens) (UniProt Q96GD4)
[28] = molecular target: Cyclin-dependent kinase 15 (Homo sapiens) (UniProt Q96Q40)
D(2) dopamine receptor = D(2) dopamine receptor (Homo sapiens, UniProt P14416); settings: Compound concentration 10.0 uM
[29] = molecular target: Kappa-type opioid receptor (Homo sapiens, UniProt P41145); settings: Compound concentration 10.0 uM
[30] = molecular target: 1-phosphatidylinositol 3-phosphate 5-kinase (Homo sapiens) (UniProt Q9Y2I7)
[31] = molecular target: Cyclin-dependent kinase 4 (Homo sapiens) (UniProt P11802)
[32] = molecular target: ALK tyrosine kinase receptor (Homo sapiens) (UniProt Q9UM73)
[33] = molecular target: Ephrin type-A receptor 2 (Homo sapiens) (UniProt P29317)
[34] = molecular target: Homeodomain-interacting protein kinase 2 (Homo sapiens) (UniProt Q9H2X6)
[35] = molecular target: Calcium/calmodulin-dependent protein kinase type II subunit gamma (Homo sapiens) (UniProt Q13555)
[36] = molecular target: Serine/threonine-protein kinase BRSK2 (Homo sapiens) (UniProt Q8IWQ3)
Chain of Serine/threonine-protein kinase BRSK2 (Homo sapiens) (Q8IWQ3 whole entry): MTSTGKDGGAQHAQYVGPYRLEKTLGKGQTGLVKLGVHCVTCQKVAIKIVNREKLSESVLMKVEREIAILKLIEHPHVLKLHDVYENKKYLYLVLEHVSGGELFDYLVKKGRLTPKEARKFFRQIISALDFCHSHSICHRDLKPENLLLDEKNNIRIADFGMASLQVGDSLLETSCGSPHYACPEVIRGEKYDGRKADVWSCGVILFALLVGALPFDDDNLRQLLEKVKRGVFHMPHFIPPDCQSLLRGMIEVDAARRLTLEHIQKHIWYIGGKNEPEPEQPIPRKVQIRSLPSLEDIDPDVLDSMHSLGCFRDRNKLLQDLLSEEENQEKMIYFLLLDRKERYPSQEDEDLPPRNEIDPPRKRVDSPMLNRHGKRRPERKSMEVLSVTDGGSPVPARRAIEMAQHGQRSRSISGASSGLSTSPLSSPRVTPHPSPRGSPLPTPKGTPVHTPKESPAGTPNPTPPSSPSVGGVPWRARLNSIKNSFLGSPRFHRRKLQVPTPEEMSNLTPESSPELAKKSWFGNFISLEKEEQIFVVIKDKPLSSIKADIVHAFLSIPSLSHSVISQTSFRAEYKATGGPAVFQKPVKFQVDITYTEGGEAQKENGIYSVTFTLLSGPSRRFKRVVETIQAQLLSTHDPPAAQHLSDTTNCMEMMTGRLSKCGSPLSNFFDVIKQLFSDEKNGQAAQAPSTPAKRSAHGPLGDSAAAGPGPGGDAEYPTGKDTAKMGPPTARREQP

[37] = system: Proto-oncogene tyrosine-protein kinase receptor Ret (Homo sapiens), P07949 [M918T]
[38] = molecular target: Serine/threonine-protein kinase 16 (Homo sapiens) (UniProt O75716)
Chain of Serine/threonine-protein kinase 16 (Homo sapiens) (O75716 whole entry): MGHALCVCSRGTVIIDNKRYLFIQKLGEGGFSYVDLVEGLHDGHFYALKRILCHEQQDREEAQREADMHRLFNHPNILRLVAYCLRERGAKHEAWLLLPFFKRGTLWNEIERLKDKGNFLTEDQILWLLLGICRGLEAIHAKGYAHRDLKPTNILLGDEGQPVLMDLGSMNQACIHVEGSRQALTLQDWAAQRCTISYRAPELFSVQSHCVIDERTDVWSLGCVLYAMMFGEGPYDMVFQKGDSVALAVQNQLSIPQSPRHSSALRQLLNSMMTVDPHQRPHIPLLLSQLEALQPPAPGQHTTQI

[39] = molecular target: Cyclin-G-associated kinase (Homo sapiens) (UniProt O14976)
[40] = molecular target: Ribosomal protein S6 kinase alpha-1 (Homo sapiens) (UniProt Q15418)
[41] = system: Leucine-rich repeat serine/threonine-protein kinase 2 (Homo sapiens), Q5S007 [G2019S]
[42] = molecular target: Tyrosine-protein kinase Lyn (Homo sapiens) (UniProt P07948)
[43] = molecular target: Mitogen-activated protein kinase kinase kinase 19 (Homo sapiens) (UniProt Q56UN5)
[44] = Compound concentration 1000.0 nM
[45] = Compound concentration 100.0 nM

Compound: Cc1cc(NC(=O)c2cccc(S(F)(F)(F)(F)F)c2)cc(-n2ccn3nc(-c4cccnc4)cc23)c1 [BAY-309]
- residual activity [1, 44]: 97.1%
- inhibition [2]: 58.5%
- residual activity [3, 44]: 100%
- residual activity [4, 44]: 100%
- residual activity [5, 44]: 100%
- residual activity [6, 44]: 93.1%
- residual activity [7, 44]: 100%
- EC50 [8]: 0.2 µM (not active)
- IC50 [8]: 0.34 µM (not active)
- residual activity [9, 44]: 100%
- residual activity (Angiopoietin-1 receptor; [44]): 84.2%
- residual activity [10, 44]: 100%
- inhibition [11]: 38.1%
- residual activity [12, 44]: 80.6%
- residual activity [13, 44]: 100%
- residual activity [14, 44]: 100%
- residual activity [15, 44]: 81.3%
- residual activity [16, 44]: 100%
- residual activity [17, 44]: 75.2%
- residual activity [18, 44]: 100%
- residual activity [19, 44]: 100%
- residual activity [20, 44]: 100%
- EC50 [21]: > 50 µM (not active)
- IC50 [21]: 7 µM (not active)
- residual activity [22, 44]: 100%
- residual activity [23, 44]: 100%
- residual activity [24, 44]: 90%
- residual activity [25, 44]: 100%
- residual activity [26, 44]: 89%
- residual activity [27, 44]: 82%
- residual activity [28, 44]: 59.9%
- inhibition (D(2) dopamine receptor): 62.1%
- inhibition [29]: 64.8%
- residual activity [30, 44]: 100%
- residual activity [31, 44]: 82.9%
- residual activity [32, 44]: 68.1%
- residual activity [33, 44]: 100%
- residual activity [34, 44]: 85%
- residual activity [35, 44]: 100%
- residual activity [36, 44]: 100%
- residual activity [37, 44]: 100%
- residual activity [38, 44]: 53.9%
- residual activity [39, 44]: 100%
- residual activity [40, 44]: 91.7%
- residual activity [41, 44]: 81.3%
- residual activity [42, 44]: 100%
- residual activity [43, 44]: 100%

Compound: Cc1cc(C)c(-n2ccn3nc(-c4cccnc4)cc23)cc1NC(=O)c1cc(C#N)cc(S(F)(F)(F)(F)F)c1 [BAY-826]
- residual activity [1, 45]: 85.4%
- inhibition [2]: 18.7%
- residual activity [3, 45]: 94.2%
- residual activity [4, 45]: 91.7%
- residual activity [5, 45]: 88.4%
- residual activity [6, 45]: 80.8%
- residual activity [7, 45]: 100%
- EC50 [8]: 0.0015 µM (active)
- IC50 [8]: 0.0009 µM (active)
- residual activity [9, 45]: 98.8%
- residual activity (Angiopoietin-1 receptor; [45]): 3.1%
- residual activity [10, 45]: 100%
- inhibition [11]: 10.7%
- residual activity [12, 45]: 98.4%
- residual activity [13, 45]: 95.6%
- residual activity [14, 45]: 83.3%
- residual activity [15, 45]: 100%
- residual activity [16, 45]: 85.1%
- residual activity [17, 45]: 83.6%
- residual activity [18, 45]: 61.6%
- residual activity [19, 45]: 93.4%
- residual activity [20, 45]: 84.6%
- EC50 [21]: 7.4 µM (not active)
- IC50 [21]: 8.2 µM (not active)
- residual activity [22, 45]: 91.4%
- residual activity [23, 45]: 100%
- residual activity [24, 45]: 100%
- residual activity [25, 45]: 98.9%
- residual activity [26, 45]: 65.1%
- residual activity [27, 45]: 98.8%
- residual activity [28, 45]: 76%
- inhibition (D(2) dopamine receptor): 8.74%
- inhibition [29]: 89.4%
- residual activity [30, 45]: 74.9%
- residual activity [31, 45]: 89.4%
- residual activity [32, 45]: 94.4%
- residual activity [33, 45]: 79.6%
- residual activity [34, 45]: 86.2%
- residual activity [35, 45]: 93.4%
- residual activity [36, 45]: 97.5%
- residual activity [37, 45]: 77.1%
- residual activity [38, 45]: 64.3%
- residual activity [39, 45]: 83.3%
- residual activity [40, 45]: 97%
- residual activity [41, 45]: 73.9%
- residual activity [42, 45]: 46%
- residual activity [43, 45]: 99.5%
